Measurements taken from PubChem BioAssay (NCI).
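All cell lines were grown in 96-well plates and treated with compound for 48 hours. TGI: total growth inhibition.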

Tests used:
Assay in all cases: NCI tumour cell line growth inhibition, 48 h
HS 578T breast = test system: HS 578T breast
MDA-MB-231 breast = test system: MDA-MB-231 breast
NCI-H522 lung = test system: NCI-H522 lung
RXF 393 renal = test system: RXF 393 renal
NCI-H23 lung = test system: NCI-H23 lung
T-47D breast = test system: T-47D breast
MCF7 breast = test system: MCF7 breast
A549 NSCLC = test system: A549 NSCLC
OVCAR-5 ovarian = test system: OVCAR-5 ovarian
A498 renal = test system: A498 renal
OVCAR-8 ovarian = test system: OVCAR-8 ovarian
TK-10 renal = test system: TK-10 renal
NCI/ADR-RES ovarian = test system: NCI/ADR-RES ovarian
MDA-N = test system: MDA-N
MALME-3M melanoma = test system: MALME-3M melanoma
SK-MEL-5 melanoma = test system: SK-MEL-5 melanoma
COLO 205 colon = test system: COLO 205 colon
786-0 renal = test system: 786-0 renal
K-562 leukemia = test system: K-562 leukemia
HOP-62 NSCLC = test system: HOP-62 NSCLC
UO-31 renal = test system: UO-31 renal
SNB-75 CNS = test system: SNB-75 CNS
MDA-MB-435 = test system: MDA-MB-435
LOX IMVI melanoma = test system: LOX IMVI melanoma
SN12C renal = test system: SN12C renal
SF-268 CNS = test system: SF-268 CNS
U251 CNS = test system: U251 CNS
SNB-19 CNS = test system: SNB-19 CNS
KM12 colon = test system: KM12 colon
UACC-62 melanoma = test system: UACC-62 melanoma
CAKI-1 renal = test system: CAKI-1 renal
NCI-H460 lung = test system: NCI-H460 lung
EKVX NSCLC = test system: EKVX NSCLC
RPMI-8226 leukemia = test system: RPMI-8226 leukemia
HT29 colon = test system: HT29 colon
SW-620 colon = test system: SW-620 colon
M14 melanoma = test system: M14 melanoma
CCRF-CEM leukemia = test system: CCRF-CEM leukemia
SR leukemia = test system: SR leukemia
HCT-15 colon = test system: HCT-15 colon
HOP-92 NSCLC = test system: HOP-92 NSCLC
SK-MEL-2 melanoma = test system: SK-MEL-2 melanoma
HL-60(TB) leukemia = test system: HL-60(TB) leukemia
OVCAR-4 ovarian = test system: OVCAR-4 ovarian
OVCAR-3 ovarian = test system: OVCAR-3 ovarian
IGROV1 ovarian = test system: IGROV1 ovarian
PC-3 prostate = test system: PC-3 prostate
SF-539 CNS = test system: SF-539 CNS
MOLT-4 leukemia = test system: MOLT-4 leukemia
HCT-116 colon = test system: HCT-116 colon
NCI-H226 lung = test system: NCI-H226 lung
SF-295 CNS = test system: SF-295 CNS
ACHN renal = test system: ACHN renal
SK-MEL-28 melanoma = test system: SK-MEL-28 melanoma
UACC-257 melanoma = test system: UACC-257 melanoma
DU-145 prostate = test system: DU-145 prostate
BT-549 breast = test system: BT-549 breast
HCC-2998 colon = test system: HCC-2998 colon
SK-OV-3 ovarian = test system: SK-OV-3 ovarian

## CCOC(=O)NC(N(C)C(C(C)C)P(=O)(OCC)OCC)(C(F)(F)F)C(F)(F)F (stereo not given)
HS 578T breast
  TGI: > 100 µM
MDA-MB-231 breast
  TGI: > 100 µM
NCI-H522 lung
  TGI: > 100 µM
RXF 393 renal
  TGI: > 100 µM
NCI-H23 lung
  TGI: > 100 µM
T-47D breast
  TGI: > 100 µM
MCF7 breast
  TGI: > 100 µM
A549 NSCLC
  TGI: > 100 µM
OVCAR-5 ovarian
  TGI: > 100 µM
A498 renal
  TGI: > 100 µM
OVCAR-8 ovarian
  TGI: > 100 µM
TK-10 renal
  TGI: > 100 µM
NCI/ADR-RES ovarian
  TGI: > 100 µM
MDA-N
  TGI: > 100 µM
MALME-3M melanoma
  TGI: > 100 µM
SK-MEL-5 melanoma
  TGI: > 100 µM
COLO 205 colon
  TGI: > 100 µM
786-0 renal
  TGI: > 100 µM
K-562 leukemia
  TGI: > 100 µM
HOP-62 NSCLC
  TGI: > 100 µM
UO-31 renal
  TGI: > 100 µM
SNB-75 CNS
  TGI: > 100 µM
MDA-MB-435
  TGI: > 100 µM
LOX IMVI melanoma
  TGI: > 100 µM
SN12C renal
  TGI: > 100 µM
SF-268 CNS
  TGI: > 100 µM
U251 CNS
  TGI: > 100 µM
SNB-19 CNS
  TGI: > 100 µM
KM12 colon
  TGI: > 100 µM
UACC-62 melanoma
  TGI: > 100 µM
CAKI-1 renal
  TGI: > 100 µM
NCI-H460 lung
  TGI: > 100 µM
EKVX NSCLC
  TGI: > 100 µM
RPMI-8226 leukemia
  TGI: > 100 µM
HT29 colon
  TGI: > 100 µM
SW-620 colon
  TGI: > 100 µM
M14 melanoma
  TGI: > 100 µM
CCRF-CEM leukemia
  TGI: > 100 µM
SR leukemia
  TGI: > 100 µM
HCT-15 colon
  TGI: > 100 µM
HOP-92 NSCLC
  TGI: > 100 µM
SK-MEL-2 melanoma
  TGI: > 100 µM
HL-60(TB) leukemia
  TGI: > 100 µM
OVCAR-4 ovarian
  TGI: > 100 µM
OVCAR-3 ovarian
  TGI: > 100 µM
IGROV1 ovarian
  TGI: > 100 µM
PC-3 prostate
  TGI: > 100 µM
SF-539 CNS
  TGI: > 100 µM
MOLT-4 leukemia
  TGI: > 100 µM
HCT-116 colon
  TGI: > 100 µM
NCI-H226 lung
  TGI: > 100 µM
SF-295 CNS
  TGI: > 100 µM
ACHN renal
  TGI: > 100 µM
SK-MEL-28 melanoma
  TGI: > 100 µM
UACC-257 melanoma
  TGI: > 100 µM
DU-145 prostate
  TGI: > 100 µM

## NNC(=O)CCCCCCCC(=O)O
HS 578T breast
  TGI: > 100 µM
MDA-MB-231 breast
  TGI: > 100 µM
NCI-H522 lung
  TGI: > 100 µM
NCI-H23 lung
  TGI: > 100 µM
T-47D breast
  TGI: > 100 µM
MCF7 breast
  TGI: > 100 µM
A549 NSCLC
  TGI: > 100 µM
OVCAR-5 ovarian
  TGI: > 100 µM
A498 renal
  TGI: > 100 µM
OVCAR-8 ovarian
  TGI: > 100 µM
TK-10 renal
  TGI: > 100 µM
NCI/ADR-RES ovarian
  TGI: > 100 µM
MDA-N
  TGI: > 100 µM
MALME-3M melanoma
  TGI: > 100 µM
SK-MEL-5 melanoma
  TGI: > 100 µM
COLO 205 colon
  TGI: > 100 µM
786-0 renal
  TGI: > 100 µM
K-562 leukemia
  TGI: > 100 µM
HOP-62 NSCLC
  TGI: > 100 µM
UO-31 renal
  TGI: > 100 µM
SNB-75 CNS
  TGI: > 100 µM
MDA-MB-435
  TGI: > 100 µM
BT-549 breast
  TGI: > 100 µM
LOX IMVI melanoma
  TGI: > 100 µM
SN12C renal
  TGI: > 100 µM
U251 CNS
  TGI: > 100 µM
SNB-19 CNS
  TGI: > 100 µM
KM12 colon
  TGI: > 100 µM
UACC-62 melanoma
  TGI: > 100 µM
CAKI-1 renal
  TGI: > 100 µM
HCC-2998 colon
  TGI: > 100 µM
NCI-H460 lung
  TGI: > 100 µM
EKVX NSCLC
  TGI: > 100 µM
RPMI-8226 leukemia
  TGI: > 100 µM
HT29 colon
  TGI: > 100 µM
SW-620 colon
  TGI: > 100 µM
M14 melanoma
  TGI: > 100 µM
CCRF-CEM leukemia
  TGI: > 100 µM
SR leukemia
  TGI: > 100 µM
HCT-15 colon
  TGI: > 100 µM
HOP-92 NSCLC
  TGI: > 100 µM
SK-MEL-2 melanoma
  TGI: > 100 µM
HL-60(TB) leukemia
  TGI: > 100 µM
OVCAR-4 ovarian
  TGI: > 100 µM
OVCAR-3 ovarian
  TGI: > 100 µM
IGROV1 ovarian
  TGI: > 100 µM
SK-OV-3 ovarian
  TGI: > 100 µM
PC-3 prostate
  TGI: > 100 µM
SF-539 CNS
  TGI: > 100 µM
MOLT-4 leukemia
  TGI: > 100 µM
HCT-116 colon
  TGI: > 100 µM
NCI-H226 lung
  TGI: > 100 µM
SF-295 CNS
  TGI: > 100 µM
ACHN renal
  TGI: > 100 µM
SK-MEL-28 melanoma
  TGI: > 100 µM
UACC-257 melanoma
  TGI: > 100 µM
DU-145 prostate
  TGI: > 100 µM

## NC(=O)C1=C(c2ccccc2)c2ccccc2C1=O
HS 578T breast
  TGI: 64.2 µM
MDA-MB-231 breast
  TGI: 32.4 µM
NCI-H522 lung
  TGI: 45.1 µM
RXF 393 renal
  TGI: 35.9 µM
NCI-H23 lung
  TGI: 33.7 µM
T-47D breast
  TGI: 40.9 µM
MCF7 breast
  TGI: 32.9 µM
A549 NSCLC
  TGI: 37.6 µM
OVCAR-5 ovarian
  TGI: 53.9 µM
A498 renal
  TGI: 60.8 µM
OVCAR-8 ovarian
  TGI: 31 µM
TK-10 renal
  TGI: 32.4 µM
NCI/ADR-RES ovarian
  TGI: 38 µM
MDA-N
  TGI: 38.1 µM
SK-MEL-5 melanoma
  TGI: 33.6 µM
COLO 205 colon
  TGI: 38.5 µM
786-0 renal
  TGI: 30.5 µM
K-562 leukemia
  TGI: > 100 µM
HOP-62 NSCLC
  TGI: 28.3 µM
UO-31 renal
  TGI: 33.3 µM
SNB-75 CNS
  TGI: 36.2 µM
MDA-MB-435
  TGI: 65.8 µM
BT-549 breast
  TGI: 30.9 µM
LOX IMVI melanoma
  TGI: 21.4 µM
SN12C renal
  TGI: 33.8 µM
SF-268 CNS
  TGI: 44.3 µM
U251 CNS
  TGI: 35.1 µM
SNB-19 CNS
  TGI: 35.4 µM
KM12 colon
  TGI: 30.9 µM
UACC-62 melanoma
  TGI: 32.7 µM
CAKI-1 renal
  TGI: 30.4 µM
HCC-2998 colon
  TGI: 29.5 µM
NCI-H460 lung
  TGI: 33.4 µM
EKVX NSCLC
  TGI: 33.3 µM
RPMI-8226 leukemia
  TGI: 72.4 µM
HT29 colon
  TGI: 34.2 µM
SW-620 colon
  TGI: 66.6 µM
M14 melanoma
  TGI: 36.8 µM
CCRF-CEM leukemia
  TGI: 7.71 µM
SR leukemia
  TGI: 26.3 µM
HCT-15 colon
  TGI: 26.8 µM
HOP-92 NSCLC
  TGI: 35.3 µM
SK-MEL-2 melanoma
  TGI: 39.7 µM
HL-60(TB) leukemia
  TGI: 18.1 µM
OVCAR-4 ovarian
  TGI: 33.5 µM
OVCAR-3 ovarian
  TGI: 24.6 µM
IGROV1 ovarian
  TGI: 30.6 µM
SK-OV-3 ovarian
  TGI: 33.2 µM
PC-3 prostate
  TGI: 32.7 µM
MOLT-4 leukemia
  TGI: 14.9 µM
HCT-116 colon
  TGI: 34.9 µM
NCI-H226 lung
  TGI: 37.5 µM
SF-295 CNS
  TGI: 41.9 µM
ACHN renal
  TGI: 23.5 µM
SK-MEL-28 melanoma
  TGI: 44.1 µM
UACC-257 melanoma
  TGI: 27.1 µM
DU-145 prostate
  TGI: 31.3 µM
